Literature values, collected in publication PMC13515262 (Molecules, 2026).

Target: T1, AChE (Electrophorus electricus, UniProt O42275)
T1 construct: The reaction was carried out using AChE serum obtained from the electric eel; from tissue; host or cells: 'serum' of the electric eel (so in the source)
Details: ref 39 (CAPE), 35 (Spiraeoside), 43 (olivetol), 36 (Vescalagin), 34 (Magnofluorine), 40 (taxifolin), 33 (coumestrol); read-out: Ki AChE (literature)

T1 sequence (O42275 24-633): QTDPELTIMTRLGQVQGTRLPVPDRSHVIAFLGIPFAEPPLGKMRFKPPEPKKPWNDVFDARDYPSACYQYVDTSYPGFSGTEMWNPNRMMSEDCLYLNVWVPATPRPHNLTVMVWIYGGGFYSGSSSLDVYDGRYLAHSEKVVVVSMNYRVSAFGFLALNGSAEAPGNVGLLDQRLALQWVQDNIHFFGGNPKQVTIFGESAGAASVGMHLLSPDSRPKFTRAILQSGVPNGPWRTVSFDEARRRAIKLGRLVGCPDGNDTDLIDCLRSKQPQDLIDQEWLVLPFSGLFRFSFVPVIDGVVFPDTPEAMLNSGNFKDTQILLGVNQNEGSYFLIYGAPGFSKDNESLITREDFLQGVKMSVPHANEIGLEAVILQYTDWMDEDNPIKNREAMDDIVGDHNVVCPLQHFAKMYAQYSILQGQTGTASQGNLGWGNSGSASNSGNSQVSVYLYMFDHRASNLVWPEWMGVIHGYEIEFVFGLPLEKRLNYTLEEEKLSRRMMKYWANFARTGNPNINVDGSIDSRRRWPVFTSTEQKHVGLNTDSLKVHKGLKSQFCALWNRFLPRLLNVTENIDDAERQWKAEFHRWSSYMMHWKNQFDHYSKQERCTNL

Structure (SMILES)	Ki
O=c1c(O)c(-c2ccc(O[C@@H]3O[C@H](CO)[C@@H](O)[C@H](O)[C@H]3O)c(O)c2)oc2cc(O)cc(O)c12 [Spiraeoside]	3.4 nM
O=C(/C=C/c1ccc(O)c(O)c1)OCCc1ccccc1 [CAPE, caffeic acid phenethyl ester]	0.518 nM
